# Source: PubChem BioAssay (NCI)
#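 1) Cells in 96-well plates. 2) Compound, 48 h, 5 concentrations. 3) Linear interpolation between surrounding doses. 4) Unreached endpoint = highest concentration. The concentration for 50% growth inhibition is given as GI50. TGI: total growth inhibition.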
# Legend:
# Assay in all cases: growth of human tumour cells (NCI), 48 h
# 786-0 renal = tested on: 786-0 renal
# A498 renal = tested on: A498 renal
# A549 NSCLC = tested on: A549 NSCLC
# CCRF-CEM leukemia = tested on: CCRF-CEM leukemia
# HCT-116 colon = tested on: HCT-116 colon
# OVCAR-3 ovarian = tested on: OVCAR-3 ovarian
# SF-268 CNS = tested on: SF-268 CNS
# SK-MEL-2 melanoma = tested on: SK-MEL-2 melanoma
# U251 CNS = tested on: U251 CNS
# UACC-257 melanoma = tested on: UACC-257 melanoma
Structure (SMILES),GI50 (786-0 renal) [µM],TGI (786-0 renal) [µM],GI50 (A498 renal) [µM],TGI (A498 renal) [µM],GI50 (A549 NSCLC) [µM],TGI (A549 NSCLC) [µM],GI50 (CCRF-CEM leukemia) [µM],TGI (CCRF-CEM leukemia) [µM],GI50 (HCT-116 colon) [µM],TGI (HCT-116 colon) [µM],GI50 (OVCAR-3 ovarian) [µM],TGI (OVCAR-3 ovarian) [µM],GI50 (SF-268 CNS) [µM],TGI (SF-268 CNS) [µM],GI50 (SK-MEL-2 melanoma) [µM],TGI (SK-MEL-2 melanoma) [µM],GI50 (U251 CNS) [µM],TGI (U251 CNS) [µM],GI50 (UACC-257 melanoma) [µM],TGI (UACC-257 melanoma) [µM]
Cc1ccc([P+](Cc2ccc([N+](=O)[O-])cc2)(c2ccc(C)cc2)c2ccc(C)cc2)cc1,9.72,22.3,2.54,12.7,14.4,57,1.92,12.5,1.49,12,1.71,7.07,3.45,14,1.96,4.51,2.56,12.2,1.69,5.3
CC1OC(=O)N(CCCC=C2SCCCS2)C1=O (stereo not given),,> 100,,> 100,,> 100,,> 100,,> 100,,> 100,,> 100,,> 100,,> 100,,> 100
O=C(/C=C/N1CCN(c2cccc(C(F)(F)F)c2)CC1)c1ccc(Cl)cc1Cl,20.8,39.8,21.6,38.8,39.8,> 100,49.6,> 100,23.6,50.2,2.44,19.3,28.6,88.8,37.5,> 100,26.1,59.8,26.5,61
CC(C)c1ccc(/C=C(\NC(=O)c2ccccc2)c2nc3ccccc3[nH]2)cc1,,> 100,,> 100,,82.5,,> 100,,> 100,,> 100,,> 100,,89.3,,> 100,,> 100
Cc1cc(N(CCC#N)S(=O)(=O)c2ccccc2)ccc1C=O,,> 100,,> 100,,> 100,,> 100,,> 100,,> 100,,> 100,,> 100,,> 100,,> 100
COc1ccc2nc3ccc(OC)cc3c(SCCCN)c2c1,6.85,15.2,19.4,56.5,12.9,38.5,1.76,4.11,3.21,12.6,2.73,6.88,4.67,14.5,6.05,11.7,9.09,> 67.3,15.6,29.8
CCOP(=O)(OCC)/C(C#N)=C\c1cccc2ccccc12,,> 100,,98.7,,> 100,,97.7,,> 100,,> 100,,64.9,,> 100,,> 100,,> 100
COc1ccccc1C(=O)c1cnc(NC2CCN(S(C)(=O)=O)CC2)nc1N,8.15,> 25,6,22,4.68,> 25,7.04,> 24.1,4.52,> 25,9.15,> 25,7.35,> 25,9.93,> 25,4.06,> 25,11.6,> 25
CCOC(=O)/C=C1\Nc2ccccc2C(c2ccccc2)=NC1OC(C)=O (stereo not given),,> 100,,> 100,,> 100,,> 100,,> 100,,> 100,,> 100,,> 100,,> 100,,> 100
CCCC/C(=N\N=C(N)N)c1ccc(F)cc1,3.93,16.2,2.59,8.08,4.66,16.7,2.23,11.7,3.51,14.6,2.9,9.5,5.58,20.8,3.09,9.4,2.36,10.2,4.4,13.9
COc1ccc2cccc(C(=N)c3ccc(C)c4c3CCC4)c2c1,,21.9,,5.87,,26.8,,26.6,,15.9,,17.6,,31.8,,24.4,,21.4,,18.2
COc1ccc(S(=O)(=O)N/N=C/C(=O)O)cc1,,971,,1210,,> 1250,,712,,1030,,1160,,975,,826,,1200,,> 1250
COc1cc2c3c(c1OC)-c1ccccc1C(C(OC(C)=O)c1ccccc1)C3N(C)CC2 (stereo not given),,> 100,,> 100,,> 100,,> 100,,> 100,,> 100,,> 100,,83.7,,> 100,,> 100
COC(=O)[C@H](Cc1ccccc1)NC(=O)c1csc([C@@H](C[C@H](C(C)C)N(C)C(=O)[C@@H](NC(=O)[C@H]2CCCCN2C)C2CC2)OC(C)=O)n1,0.064,> 25,0.0693,1.67,0.0991,> 25,0.021,> 25,0.0197,> 25,0.0102,0.063,0.111,> 25,0.492,> 25,0.0669,> 25,> 10.7,> 25
C/C(=C(/c1ccc(O)cc1)c1ccc(OCCN2CCCC2)cc1)c1ccccc1,1.86,4.09,1.67,8.49,3.53,11,3.2,9.85,2.92,10.1,5.66,18.1,5.58,20.7,1.97,3.95,2.24,5.49,2.03,3.93
